Test results from US20260176300A1, “N-ARYLPYRAZOLE NOD2 AGONISTS AS PROMOTERS OF IMMUNE CHECKPOINT INHIBITOR THERAPY” (THE SCRIPPS RESEARCH INSTITUTE, priority 2022, published 2026).

Molecular target: T1, NOD2 (Homo sapiens, UniProt Q9HC29)
T1 construct: host or cells: HEK-293T-derived HEK-Blue NF-kB/SEAP reporter cells
Assay: NOD2-HEK-Blue NF-κB reporter cell activation assay (NOD2-expressing HEK-293T cells)
Assay type: cell-based
Conditions: for NOD2 activation, result in words in the pEC50 column: Table 1; for EC50: calculated, three-parameter dose-response nonlinear regression, read-out: pEC50 (μM), dose-dependent activation of NOD2-expressing HEK-293T cells (converted); for Activation of NOD2-expressing HEK-293T cells, colorimetric assay: 10 µM, 16 h (FIG. 1E); for Potency in structure-activity comparison: relative to TT007, FIG. 2B, 2D, 2F, 6E; for Activity after N-methylation on Val: TT018 vs. TT019, TT010 vs. TT020, TT011 vs. TT021, FIG. 2C
Text: FIG. 1(A-F). Virtual screening for small molecule NOD2 agonists. A, Docked structure of muramyl dipeptide (MDP) in the leucine-rich repeat (LRR) domain of rabbit NOD2 (pdb 5IRM). […] B, Results of virtual docking approach with reported chemical structures related to MDP. C, Workflow of virtual screening in which a library was generated using carboxylic acids appended to the L-Val-D-Glu dipeptide and then docked to the NOD2 LRR domain. D, Desmuramyl MDP (dMDP) structures resulting from the virtual screen that were synthesized for further screening. Chemicals shown as a pure enantiomer were synthesized as a racemic mixture. E, Activation of NOD2-expressing HEK-293T cells treated for 16 h with 10 µM of the indicated compound using a colorimetric assay. F, Dose-dependent activation of NOD2-expressing HEK-293T cells using the indicated compounds. Numbers in parentheses represent calculated negative log of the half maximal effective concentration (pEC50) values. NOD activation assays were analyzed using a one-way ANOVA with Dunnett's multiple comparisons test compared to the DMSO control. pEC50 values were derived by a three-parameter dose-response nonlinear regression. ****P<0.0001.
FIG. 2(A-G). Structure-activity relationship studies of 3,5-dimethyl-N-arylpyrazole NOD2 agonists. A, Structures of 3,5-dimethyl-N-arylpyrazole structures synthesized for SAR studies. B-F, Dose-dependent activation of NOD2-expressing HEK-293T cells using the indicated compounds grouped by similar structural perturbations. Numbers in parentheses represent calculated pEC50 values. G, Graph of calculated pEC50 values vs. calculated partition coefficient (clogP). Dotted lines show equivalent lipophilic ligand efficiency (LLE) values. Red arrow indicates optimization of the TT007 scaffold to TT030. pEC50 values were derived by a three-parameter dose-response nonlinear regression.
Cell culture. The following cell lines were used and sourced as follows: HEK-Blue NOD2 (InvivoGen, hkb-hnod2), HEK-Blue NOD1 (InvivoGen, hkb-nod1), HEK-Blue Null2 (hkb-null2), and B16-F10 (ATCC CRL-6475). All cell lines were cultured at 37° C. in 5% CO2 in DMEM (ThermoFisher, 11995065) supplemented with 10% fetal bovine serum (FBS), 100 U mL-1 penicillin, and 100 μg mL-1 streptomycin. Cells were maintained at no greater than 70% confluency and subcultured using TrypLE Express. Cell lines were routinely cultured without antibiotics to ensure no bacterial infection and tested for mycoplasma using a Universal Mycoplasma Detection Kit (ATCC 30-1012K). Primary human peripheral mononuclear blood cells (PBMCs) were cultured at 37° C. in 5% CO2 in RPMI 1640 (ThermoFisher, 61870143) supplemented with 10% FBS. All experimental work using human samples was reviewed and approved by the Scripps Research Institutional Review Board (Protocol IRB-21-7816NOD2).
Reporter cell line activation assay. Approximately 24 h before the assay, culture medium for each of the HEK-Blue reporter cell lines was replaced with a 1:1 mixture of DMEM supplemented with 10% FBS and OptiMEM. On the day of the assay, single cell suspensions (150,000 cells/mL) were produced in HEK-Blue detection medium (InvivoGen, hb-det2). Cells were aliquoted at 200 μL per well of a 96-well plate containing 0.2 μL of a 1000× stock of each test compound in DMSO. Cells were then incubated at 37° C. in 5% CO2 for 8-10 h. To measure activity, wells were then gently pipetted up and down to mix the conditioned medium, and absorbance from the colorimetric product of the secreted alkaline phosphatase was measured at 630 nm. In some assays, cells were stimulated for 16 h with compounds as described above in complete DMEM. Then, 20 μL of the conditioned medium was mixed with 180 μL QUANTI-Blue solution (InvivoGen, rep-qbs) and incubated for 2-4 h at 37° C. Activity was then measured by absorbance as described above.

T1 sequence (Q9HC29 whole entry): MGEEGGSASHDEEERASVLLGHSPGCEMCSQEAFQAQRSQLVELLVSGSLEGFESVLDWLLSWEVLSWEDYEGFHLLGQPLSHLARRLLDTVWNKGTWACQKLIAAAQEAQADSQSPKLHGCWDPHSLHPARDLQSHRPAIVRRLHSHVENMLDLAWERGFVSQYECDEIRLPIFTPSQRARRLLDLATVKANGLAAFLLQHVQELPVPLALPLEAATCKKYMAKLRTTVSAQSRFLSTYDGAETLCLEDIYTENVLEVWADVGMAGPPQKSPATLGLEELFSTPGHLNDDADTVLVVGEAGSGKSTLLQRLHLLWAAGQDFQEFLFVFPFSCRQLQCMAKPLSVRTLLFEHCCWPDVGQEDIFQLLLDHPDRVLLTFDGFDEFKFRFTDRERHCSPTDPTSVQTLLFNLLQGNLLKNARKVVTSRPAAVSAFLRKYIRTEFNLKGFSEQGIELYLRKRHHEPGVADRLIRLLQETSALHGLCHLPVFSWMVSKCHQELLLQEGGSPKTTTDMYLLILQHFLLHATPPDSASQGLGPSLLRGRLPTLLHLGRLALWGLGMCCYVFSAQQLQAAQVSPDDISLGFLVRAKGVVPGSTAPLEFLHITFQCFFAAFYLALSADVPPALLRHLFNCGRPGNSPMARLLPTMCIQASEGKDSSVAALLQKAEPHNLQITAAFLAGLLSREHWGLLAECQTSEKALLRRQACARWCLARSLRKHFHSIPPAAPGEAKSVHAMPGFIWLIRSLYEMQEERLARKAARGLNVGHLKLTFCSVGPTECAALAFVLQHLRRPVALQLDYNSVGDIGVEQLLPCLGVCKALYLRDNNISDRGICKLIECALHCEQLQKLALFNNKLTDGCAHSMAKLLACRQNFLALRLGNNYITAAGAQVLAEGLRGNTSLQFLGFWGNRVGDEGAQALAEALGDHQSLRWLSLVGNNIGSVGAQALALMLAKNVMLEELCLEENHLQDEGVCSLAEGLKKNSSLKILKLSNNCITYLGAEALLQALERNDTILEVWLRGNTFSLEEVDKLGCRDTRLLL

Row | Compound | EC50 | Potency in structure-activity comparison | other results
1 | CCOC(=O)CC[C@@H](NC(=O)[C@@H](NC(=O)[C@@H]1C[C@H]1c1ccc(Cl)c(Cl)c1)C(C)C)C(=O)OCC (racemic) [TT004, Diethyl (rac-(1R,2R)-2-(3,4-dichlorophenyl)cyclopropane-1-carbonyl)-L-valyl-D-glutamate] | – | – | NOD2 activation, result in words in the pEC50 column: Active
2 | CCOC(=O)CC[C@@H](NC(=O)[C@@H](NC(=O)C(C)Cc1ccc(F)c(F)c1)C(C)C)C(=O)OCC (mixture of isomers) [TT005, Diethyl (3-(3,4-difluorophenyl)-2-methylpropanoyl)-L-valyl-D-glutamate] | 0.631 µM | – | –
3 | CCOC(=O)CC[C@@H](NC(=O)[C@@H](NC(=O)CNC(=O)/C=C/c1ccccc1)C(C)C)C(=O)OCC [CinGVE, Diethyl cinnamoylglycyl-L-valyl-D-glutamate, reference compound] | 1.26 µM | – | –
4 | CCOC(=O)CC[C@@H](NC(=O)[C@@H](NC(=O)CCCc1ccccc1)C(C)C)C(=O)OCC [TT001, Diethyl (4-phenylbutanoyl)-L-valyl-D-glutamate] | – | – | NOD2 activation, result in words in the pEC50 column: Active
5 | CCOC(=O)CC[C@@H](NC(=O)[C@@H](NC(=O)/C=C/c1ccc(F)cc1)C(C)C)C(=O)OCC [TT002, Diethyl ((E)-3-(4-fluorophenyl)acryloyl)-L-valyl-D-glutamate] | – | – | NOD2 activation, result in words in the pEC50 column: Active
6 | CCOC(=O)CC[C@@H](NC(=O)[C@@H](NC(=O)C1(Cc2ccc(F)cc2)CCCC1)C(C)C)C(=O)OCC [TT003, Diethyl (1-(4-fluorobenzyl)cyclopentane-1-carbonyl)-L-valyl-D-glutamate] | 0.0501 µM | – | –
7 | CCOC(=O)CC[C@@H](NC(=O)[C@@H](NC(=O)c1cn(-c2ccccc2)nc1-c1cccc(C)c1)C(C)C)C(=O)OCC [TT008, Diethyl (1-phenyl-3-(m-tolyl)-1H-pyrazole-4-carbonyl)-L-valyl-D-glutamate] | – | – | Activation of NOD2-expressing HEK-293T cells, colorimetric assay: inactive
8 | CCOC(=O)CC[C@@H](NC(=O)[C@@H](NC(=O)c1cn(-c2ccc(F)cc2)nc1-c1cccc(C)c1)C(C)C)C(=O)OCC [TT009, Diethyl (1-(4-fluorophenyl)-3-(m-tolyl)-1H-pyrazole-4-carbonyl)-L-valyl-D-glutamate] | – | did not compensate the lack of the other substituent | Activation of NOD2-expressing HEK-293T cells, colorimetric assay: inactive
9 | CCOC(=O)CC[C@@H](NC(=O)[C@@H](NC(=O)c1cnn(-c2ccc(F)cc2)c1C)C(C)C)C(=O)OCC [TT010, Diethyl (1-(4-fluorophenyl)-5-methyl-1H-pyrazole-4-carbonyl)-L-valyl-D-glutamate] | 39.8 µM | reduced potency by up to two orders of magnitude | –
10 | CCOC(=O)CC[C@@H](NC(=O)[C@@H](NC(=O)c1cn(-c2ccc(F)cc2)nc1C)C(C)C)C(=O)OCC [TT011, Diethyl (1-(4-fluorophenyl)-3-methyl-1H-pyrazole-4-carbonyl)-L-valyl-D-glutamate] | 10 µM | reduced potency by up to two orders of magnitude | –
11 | CCOC(=O)CC[C@@H](NC(=O)[C@@H](NC(=O)c1cnn(-c2ccc(F)cc2)c1C(C)C)C(C)C)C(=O)OCC [TT012, Diethyl (1-(4-fluorophenyl)-5-isopropyl-1H-pyrazole-4-carbonyl)-L-valyl-D-glutamate] | 31.6 µM | did not compensate the lack of the other substituent | –
12 | CCOC(=O)CC[C@@H](NC(=O)[C@@H](NC(=O)c1cn(-c2ccc(C)cc2)nc1C)C(C)C)C(=O)OCC [TT013, Diethyl (3-methyl-1-(p-tolyl)-1H-pyrazole-4-carbonyl)-L-valyl-D-glutamate] | 10 µM | – | –
13 | CCOC(=O)CC[C@@H](NC(=O)[C@@H](NC(=O)c1cnn(-c2ccccc2O)c1C)C(C)C)C(=O)OCC [TT014, Diethyl (1-(2-hydroxyphenyl)-5-methyl-1H-pyrazole-4-carbonyl)-L-valyl-D-glutamate] | 31.6 µM | – | –
14 | CCOC(=O)CC[C@@H](NC(=O)[C@@H](NC(=O)c1cnn(-c2ccncc2)c1C)C(C)C)C(=O)OCC [TT016, Diethyl (5-methyl-1-(pyridin-4-yl)-1H-pyrazole-4-carbonyl)-L-valyl-D-glutamate] | 79.4 µM | – | –
15 | CCOC(=O)CC[C@@H](NC(=O)[C@@H](NC(=O)c1c(C)nn(-c2ccccc2)c1C)C(C)C)C(=O)OCC [TT018, Diethyl (3,5-dimethyl-1-phenyl-1H-pyrazole-4-carbonyl)-L-valyl-D-glutamate] | 2.51 µM | did not yield compounds with appreciable differences in potency | –
16 | CCOC(=O)CC[C@@H](NC(=O)[C@H](C(C)C)N(C)C(=O)c1c(C)nn(-c2ccccc2)c1C)C(=O)OCC [TT019, Diethyl N-(3,5-dimethyl-1-phenyl-1H-pyrazole-4-carbonyl)-N-methyl-L-valyl-D-glutamate] | – | – | Activity after N-methylation on Val: abolished the activity
17 | CCOC(=O)CC[C@@H](NC(=O)[C@H](C(C)C)N(C)C(=O)c1cnn(-c2ccc(F)cc2)c1C)C(=O)OCC [TT020, Diethyl N-(1-(4-fluorophenyl)-5-methyl-1H-pyrazole-4-carbonyl)-N-methyl-L-valyl-D-glutamate] | – | – | Activity after N-methylation on Val: abolished the activity
18 | CCOC(=O)CC[C@@H](NC(=O)[C@H](C(C)C)N(C)C(=O)c1cn(-c2ccc(F)cc2)nc1C)C(=O)OCC [TT021, Diethyl N-(1-(4-fluorophenyl)-3-methyl-1H-pyrazole-4-carbonyl)-N-methyl-L-valyl-D-glutamate] | – | – | Activity after N-methylation on Val: abolished the activity
19 | CCOC(=O)CC[C@@H](NC(=O)[C@@H](NC(=O)c1c(C)nn(-c2ccc(Cl)c(Cl)c2)c1C)C(C)C)C(=O)OCC [TT022, Diethyl (1-(3,4-dichlorophenyl)-3,5-dimethyl-1H-pyrazole-4-carbonyl)-L-valyl-D-glutamate] | 1.26 µM | slight increase | –
20 | CCOC(=O)CC[C@@H](NC(=O)[C@@H](NC(=O)c1c(C)nn(-c2ccc(OC)cc2)c1C)C(C)C)C(=O)OCC [TT023, Diethyl (1-(4-methoxyphenyl)-3,5-dimethyl-1H-pyrazole-4-carbonyl)-L-valyl-D-glutamate] | 2 µM | did not yield compounds with appreciable differences in potency | –
21 | CCOC(=O)CC[C@@H](NC(=O)[C@@H](NC(=O)c1c(C)nn(-c2ccc(Cl)cc2)c1C)C(C)C)C(=O)OCC [TT024, Diethyl (1-(4-chlorophenyl)-3,5-dimethyl-1H-pyrazole-4-carbonyl)-L-valyl-D-glutamate] | 1 µM | did not yield compounds with appreciable differences in potency | –
22 | CCOC(=O)CC[C@@H](NC(=O)[C@@H](NC(=O)c1c(C)nn(-c2ccc3cc[nH]c3c2)c1C)C(C)C)C(=O)OCC [TT025, Diethyl (1-(1H-indol-6-yl)-3,5-dimethyl-1H-pyrazole-4-carbonyl)-L-valyl-D-glutamate] | 0.158 µM | – | –
